Assay results taken from patent US20150299659A1, “MUSCLE CELL PRODUCTION” (Monash University, priority 2014, published 2015).

Columns and labels:
Format in all cases: cell-based, human
hPSCs [1] = assay: FACS quantification of myogenic cell populations from differentiated hPSCs; conditions: for percentage of CXCR4+/C-MET+ and ACHR+ populations compared to CHIR+FGF2 cultures: single-agent conditions (CHIR only or FGF2 only)
Description: (§1) Experiments were performed using all four hPSC lines. When colony size reached >600 μm in diameter and colony density on the plate was approximately 30-40%, we induced differentiation of hPSC by switching the culture medium from mTESR1 to a chemically defined, serum-free medium DMEM-F12 supplemented with insulin-transferrin-selenium (ITS) (all from Sigma-Aldrich, St. Louis, Mo.). Starting at day 0 of differentiation, cells were cultured in the presence of 3 μM CHIR 99021 (Miltenyi Biotech, Auburn, Calif.) for 4 days. Culture medium was then replaced by ITS containing 20 ng/ml of FGF2 (Miltenyi Biotech) for a further 14 days. For each experimental control condition, hPSCs differentiation was induced as follows: 1) CHIR only: ITS medium containing 3 μM CHIR from days 0-4, followed by ITS medium only until day of analysis; and 2) FGF2 only: ITS medium only between days 0-4, followed by ITS medium containing 20 ng/ml FGF2 for 14 days. Medium was replaced daily until the day of the analysis.
(§2) Cells were dissociated with 0.05% trypsin or TrypLE Select (Invitrogen, Carlsbad, Calif.) to a single cell suspension and incubated with the appropriate fluorochrome-labelled antibodies (Table 1) at a concentration of 10^7 cells/ml for 30 minutes on ice. Indirect labelling of HNK and ACHR antibodies was done using goat anti-mouse Alexa Fluor 488 and goat anti-mouse PE (both from Molecular Probes, Invitrogen) as secondary antibodies. Labelled cells were sorted through a BD Influx (five lasers) flow sorter (BD Biosciences) according to the excitation requirements of the fluorochromes. Sorted populations were analyzed using FlowJo software (Tree Star Inc., Ashland, Oreg.).
Data were analyzed by two-way analysis of variance (ANOVA) followed by Bonferroni's post-test to calculate p values. Analyses were performed using statistical software (GraphPad Prism 5.04; GraphPad Software, San Diego, Calif.). Probability values <0.05 were considered statistically significant. Error bars in each figure represent the standard error of the mean of three or more individual experiments. For qPCR data, p values were calculated for changes in expression of markers over time compared to day 0. For quantitative analysis of FACS sorting data, the percentage of myogenic cells relative to the total number of cells were obtained for each experimental culture treatment, and p values were calculated for differences between the means of each experimental condition.

hESC HES3 = assay: Immunocytochemistry of cytospin preparations of sorted cells
Description: as §2
For cytospin preparations of FACS sorted populations, cells were spun onto glass slides using Cytospin 4 (Shandon, Thermofisher, Waltham, Mass.). Cells were then fixed with 100% cold methanol for 5 minutes and subsequently rehydrated in phosphate buffered solution (PBS) for 15-20 minutes. Cultured cells were fixed with 4% paraformaldehyde for 10 minutes at room temperature and permeabilized with 0.3% Triton X-100 in PBS for 30 minutes. A complete list of primary and fluorochrome-labelled secondary antibodies used in this study is provided in the Supporting Information (Table 1). […] Images were analyzed with Nikon NIS-Elements 3.2 software. […]

hPSCs [2] = assay: CHIR concentration optimisation for differentiation of hPSCs towards a myogenic phenotype
Description: as §1, with “Starting at day 0 of differentiation, cells were cultured in the presence of 3 μM CHIR 99021 (Miltenyi Biotech, Auburn, Calif.) for 4 days.” left out, “analysis. Human PSCs were first exposed to 3 μM CHIR for 4 days, and then the small molecule was replaced with 20 ng/ml of FGF2 for an additional 2 weeks (FIG. 2A). To optimize the differentiation of hPSCs towards a myogenic phenotype, different CHIR concentrations were tested. […] The FGF signaling pathway has been identified to regulate several developmental processes of muscle formation. […]” for “analysis.”

hESC (HES3) = assay: RT-PCR and marker analysis of dorsal tissue and endoderm in differentiating hPSCs
Description: For cytospin preparations of FACS sorted populations, cells were spun onto glass slides using Cytospin 4 (Shandon, Thermofisher, Waltham, Mass.). Cells were then fixed with 100% cold methanol for 5 minutes and subsequently rehydrated in phosphate buffered solution (PBS) for 15-20 minutes. Cultured cells were fixed with 4% paraformaldehyde for 10 minutes at room temperature and permeabilized with 0.3% Triton X-100 in PBS for 30 minutes. A complete list of primary and fluorochrome-labelled secondary antibodies used in this study is provided in the Supporting Information (Table 1). Incubations with primary and subsequently secondary antibodies were performed in Incubation Buffer (0.1% BSA, 2% FBS, 0.1% Triton X-100 in PBS) for 40 minutes at 37° C. Image acquisition was performed on an inverted Nikon Eclipse Ti epifluorescence microscope with the appropriate filter sets using single channel acquisition on a Nikon Digital sight DS-U2 camera. Images were analyzed with Nikon NIS-Elements 3.2 software. All immunofluorescence images are representative of one individual experiment. […]
Total RNA was extracted using RNeasy Mini kit (Qiagen, Hilden, Germany), and DNAse I treatment (Qiagen) was performed to avoid genomic DNA contamination. […] The inventors optimized the PCR conditions and determined the linear amplification range for each primer by varying annealing temperature and cycle number. […]

hPSCs [3] = assay: Immunocytochemical quantification of muscle cells in unsorted hPSC cultures; conditions: exposure to CHIR for up to 10 days
Description: as §1, with “Starting at day 0 of differentiation, cells were cultured in the presence of 3 μM CHIR 99021 (Miltenyi Biotech, Auburn, Calif.) for 4 days.” left out, “Medium was replaced daily until the day of the analysis.” left out
For cytospin preparations of FACS sorted populations, cells were spun onto glass slides using Cytospin 4 (Shandon, Thermofisher, Waltham, Mass.). […] Images were analyzed with Nikon NIS-Elements 3.2 software. […]
Following withdrawal of FGF2 and a further 17 days of culture in ITS medium alone areas with skeletal muscle cells were scored in treated culture dishes, prior to FACS analysis and identified by immunocytochemistry as PAX3+ and PAX7+ precursors (FIG. 2B) (Relaix et al (2005) Nature 435:948-953) and bipolar skeletal myocytes, positive for myogenin and sarcomeric myosin (MF20) (FIG. 2C).

FGF2: fibroblast growth factor, used at 20 ng/ml to expand the muscle precursor compartment
cell fate of CXCR4+/C-MET− and CXCR4−/C-MET+ fractions compared to CHIR+FGF2 (hPSCs [1]; FGF2 only, absence of CHIR treatment): fundamental shift from a myogenic to a non-myogenic cell fate
percentage of CXCR4+/C-MET+ and ACHR+ populations compared to CHIR+FGF2 cultures (hPSCs [1]): almost complete loss
phenotype of sorted CXCR4+/C-MET− cells (hESC HES3): complete switch towards SOX1 expression
phenotype of sorted CXCR4−/C-MET+ cells (hESC HES3): PAX3+ and PAX7+ cells are not present

Cc1c[nH]c(-c2cnc(NCCNc3ccc(C#N)cn3)nc2-c2ccc(Cl)cc2Cl)n1 [CHIR, CHIR 99021]
myogenic induction of hPSCs (hPSCs [1]; CHIR only, 3 μM days 0-4, then ITS medium only): sufficient for myogenic induction
percentage of CXCR4+/C-MET+ and ACHR+ populations compared to CHIR+FGF2 cultures (hPSCs [1]): Reduction in the percentage
toxicity to differentiating hPSCs (hPSCs [2]; CHIR concentration >3 μM): High toxicity
induction of myogenic phenotype (hPSCs [2]; CHIR doses of <3 μM): inefficient induction
expression of dorsal markers SOX10 and LMX1a (RT-PCR) (hESC (HES3); day 10 of hESC (HES3) differentiation): expressed only in CHIR (GSK3β inhibitor) treated cells
generation of endoderm cells (hESC (HES3); lack of specific endodermal markers in the cultures): not permissive for the generation of endoderm cells
muscle derivation after prolonged exposure (hPSCs [3]): no muscle cells were identified
